From US10351586B2, “Cytidine derivative dimers and applications thereof” (CHANGZHOU FANGYUAN PHARMACEUTICAL CO., LTD, priority 2014, dated 2019)

System: HCT-116 human colon cancer cells
Assay: Colony formation inhibition test on HCT-116 human colon cancer cells
Assay type: cell-based
Conditions: for Number of cell clones on HCT-116, mean / inhibition at 0.05 µM / inhibition at 0.15 µM / inhibition at 0.45 µM: 72 h treatment, then 7-10 days; for inhibition at 0.05 µM / inhibition at 0.15 µM / inhibition at 0.45 µM / IC50: Homo sapiens; for inhibition at 0.05 µM / inhibition at 0.15 µM / inhibition at 0.45 µM: HCT-116, read-out: % inhibition (colony formation inhibition rate); for IC50: HCT-116 cells, dose-response 50, 150, 450 nM, read-out: IC50 value (colony formation inhibition, FIG. 7)
Description: 1. The colony formation inhibition test was used to evaluate the effect of four exemplary candidate compounds (D1, D2, D3, and D4) having concentrations of 50 nM, 150 nM and 450 nM on inhibiting cell proliferation of HCT-116 human colon cancer cells line.
2. Experiment material includes cell lines. HCT-116 human colon cancer cell line was purchased from the Chinese Academy of Sciences Shanghai Cell Resource Center, Cat # TCHu 99.
3. Reagent preparation includes HCT-116 human colon cancer cell culture medium, e.g., Dulbecco's Modified Eagle's medium (DMEM) medium with 10% fetal bovine serum (FBS). Compound solutions were prepared by dissolving and diluting the above synthesized compounds in dimethyl sulfoxide (DMSO) to a final concentration of about 100 μM.
Cell staining solution was prepared including 0.5% crystal violet solution prepared using absolute or anhydrous ethanol, and stored in dark. Before staining, the solution was mixed with phosphate buffered saline (PBS) buffer solution by volume ratio of 1:4 as the cell staining solution.
4. Cell culture: cells in logarithmic growth phase were collected, counted, and resuspended in complete culture medium. The cell concentration was adjusted to an appropriate concentration, 6-well culture plates were seeded, with about 300 cells and 1.8 mL of culture medium in each well. Cells were incubated for about 5 hours in an incubator at about 37° C. and about 100% relative humidity and under 5% CO2.
5. Cell colony formation inhibition test and data processing were performed including, for example, (a)-(i) as follows.
(a) Cells in logarithmic growth phase were collected and counted. The cells were re-suspended in culture medium containing 5% FBS, and counted. Six-well plates were seeded according to a rate of 300 cells per well. Cells were incubated for about 5 hours in an incubator at about 37° C. with 100% relative humidity and under 5% CO2.
(b) The compounds were diluted with culture medium (containing 5% FBS) to be concentrations of about 0.5 μM, 1.5 μM and 4.5 μM. Adding the compounds to cells in 200 μL per well, the final concentrations of the compounds were about 50 nM, 150 nM and 450 nM. Each concentration point was repeatedly tested for three times.
(c) Cells were incubated for about 72 hours in an incubator at 37° C. with 100% relative humidity and under 5% CO2. (d) The culture medium from the plates (the culture medium containing the compound(s) was aspirated. The plates were rinsed with Hank's Balance Salt Solution (HBSS) twice, and replaced with fresh culture medium (DMEM medium with 15% FBS).
(e) Cells were incubated for about 7-10 days in an incubator at about 37° C. and 100% relative humidity and under 5% CO2, until the formation of visible cloned plaques. (f) The culture medium was aspirated from the plates. The plates were rinsed twice with PBS solution. (g) The residual PBS was absorbed and removed, and ethanol was added at 1 mL per plate, fixing for 30 minutes.
(h) Ethanol was absorbed and removed, and cell staining solution was added, stained for 3 minutes. (i) The staining solution was aspirated. After rinsing three times with PBS, the cells were counted.
Data processing was performed. Cloning formation efficiency=[As/Ac]×100%; and colony formation inhibition rate=1−cloning formation efficiency, where As denotes number of cell colonies in compound-treated group (cells+compounds to be tested), and Ac denotes number of cell colonies in negative control (without treating with compound) (cells+1% DMSO).

SMILES: CCCCOC(=O)Nc1ccn(C2OC(COC(=O)CCCC(=O)OC[C@H]3O[C@@H](n4ccc(NC(=O)OCCCC)nc4=O)C(F)(F)[C@@H]3OC(=O)OCCCC)C(OC(=O)OCCCC)C2(F)F)c(=O)n1 (stereo in doubt) [Compound D1, 1,5-di-[4-N-(n-butyloxycarbonyl)-3′-O-(n-butoxycarbonyl)-2′-deoxy-2′,2′-difluoro-cytidine]glutarate]
- Number of cell clones on HCT-116, mean (50 nM): 242
- Number of cell clones on HCT-116, mean (150 nM): 188
- Number of cell clones on HCT-116, mean (450 nM): 52
- inhibition at 0.05 µM (50 nM): 3.58%
- inhibition at 0.15 µM (150 nM): 25.1%
- inhibition at 0.45 µM (450 nM): 79.3%
- IC50: ~245 nM

SMILES: CCCCOC(=O)Nc1ccn([C@H]2O[C@@H](COC(=O)CCC(=O)OC[C@H]3O[C@@H](n4ccc(NC(=O)OCCCC)nc4=O)C(F)(F)[C@@H]3O)[C@H](O)C2(F)F)c(=O)n1 (stereo in doubt) [Compound D2, 1,5-di-[4-N-(n-butoxycarbonyl)-2′-deoxy-2′,2′-difluoro-cytidine]glutarate]
- Number of cell clones on HCT-116, mean (50 nM): 243
- Number of cell clones on HCT-116, mean (150 nM): 191
- Number of cell clones on HCT-116, mean (450 nM): 36
- inhibition at 0.05 µM (50 nM): 4.7%
- inhibition at 0.15 µM (150 nM): 25.1%
- inhibition at 0.45 µM (450 nM): 85.9%
- IC50: ~227 nM

SMILES: CCCCOC(=O)Nc1ccn(C2OC(COC(=O)CCC(=O)OC[C@H]3O[C@@H](n4ccc(NC(=O)OCc5ccccc5)nc4=O)C(F)(F)[C@@H]3O)C(O)C2(F)F)c(=O)n1 (stereo in doubt) [Compound D4, 1-O-(4-N-(Benzyloxycarbonyl)-gemcitabine)-4-O-(4-N-(n-Butoxycarbonyl)-gemcitabine)-succinate]
- Number of cell clones on HCT-116, mean (50 nM): 235
- Number of cell clones on HCT-116, mean (150 nM): 75
- Number of cell clones on HCT-116, mean (450 nM): 11
- inhibition at 0.05 µM (50 nM): 8.2%
- inhibition at 0.15 µM (150 nM): 70.7%
- inhibition at 0.45 µM (450 nM): 95.7%
- IC50: ~112 nM

SMILES: O=C(CCCC(=O)OC[C@H]1O[C@@H](n2ccc(NC(=O)OCc3ccccc3)nc2=O)C(F)(F)[C@@H]1O)OC[C@H]1O[C@@H](n2ccc(NC(=O)OCc3ccccc3)nc2=O)C(F)(F)[C@@H]1O [Compound D3, 1,5-di-[4-N-(benzyloxycarbonyl)-2′-deoxy-2′,2′-difluoro-cytidine]glutarate]
- Number of cell clones on HCT-116, mean (50 nM): 237
- Number of cell clones on HCT-116, mean (150 nM): 20
- Number of cell clones on HCT-116, mean (450 nM): 4
- inhibition at 0.05 µM (50 nM): 1.66%
- inhibition at 0.15 µM (150 nM): 91.7%
- inhibition at 0.45 µM (450 nM): 98.3%
- IC50: ~99.8 nM
